How the values were obtained:
[1] = test system: tumors induced by 7,12-dimethylbenzanthracene (DMBA); experiment: DMBA-induced tumors in female rats, subcutaneous treatment; assay type: in vivo, rat
Procedure: In a group of 3 female, 50-day old rats, tumors were induced by intragastric feeding of 20 mg of 7,12-dimethylbenzanthracene (DMBA) in 2 ml. of sesame oil. The animals developed tumors within 10-12 weeks. All animals were maintained on normal rations for 100 days following the DMBA administration, at which time treatment with the compound of formula I (R = ethyl; R' = isobutyl) was started at a b.i.d. regimen Monday through Friday with a single dose on Saturday, the compound being subcutaneously administered as a 0.2% (wt/vol.) solution in isotonic saline.
The first animal carrying 4 tumors of volumes of 5.5, 3, 1 and 1 cc. respectively, was given the above regimen with 10 μg per dose.
In the second animal carrying 3 tumors, each dose contained only 5 μg of the drug.
The third animal had developed 5 tumors, measuring 6.5, 3.5, 1.5, 0.5 and 0.5 cc. respectively. After treatment with 2.5 μg. per dose of the test drug, these tumors were reduced to 1.5, 3.0, 0.5, 0.2 and >0.0 cc. in that sequence.

[2] = test system: spontaneous growth in the right lateral mammary region (adenocarcinoma of the mammary gland); experiment: Spontaneous mammary tumor in a female rat, subcutaneous treatment; assay type: in vivo
Procedure: A female rat that had developed a spontaneous growth in the right lateral mammary region was given b.i.d. 10 μg. of the compound of formula I (R'= isobutyl; R = ethyl). […] On day 9, a biopsy was performed and the tumor was identified as adenocarcinoma of the mammary gland. Treatment was stopped after 20 days and the animal was observed periodically. Tumor growth reappeared in the same area with rapid growth observed on day 65 (counted from original treatment beginning). […] Treatment with the above regimen was started again. The tumor regressed again and on day 93, its diameter was 1.2 cm. and its depth was 0.4 cm. […] However, the tumor remained dormant until day 147 (54 days following the last treatment), when significant growing resumed.

[3] = day 66, regrowth after treatment was stopped on day 20, before second treatment

## CCNC(=O)[C@@H]1CCCN1C(=O)[C@H](CCCNC(=N)N)NC(=O)[C@H](CC(C)C)NC(=O)[C@@H](CC(C)C)NC(=O)[C@H](Cc1ccc(O)cc1)NC(=O)[C@H](CO)NC(=O)[C@H](Cc1c[nH]c2ccccc12)NC(=O)[C@H](Cc1c[nH]cn1)NC(=O)[C@@H]1CCC(=O)N1
[1]; first animal, 4 tumors of 5.5, 3, 1 and 1 cc, 10 μg per dose, after 2 weeks, the other two tumors
  tumor volume: immeasurable volumes
[1]; first animal, 4 tumors of 5.5, 3, 1 and 1 cc, 10 μg per dose, after 2 weeks, two of the tumors
  tumor volume: 1 cc
[1]; second animal, 3 tumors, 5 μg per dose, one tumor
  effect on tumor: seemingly unaffected
[1]; second animal, 5 μg per dose, tumor of 3 cc before treatment
  tumor volume: 11/4
[1]; second animal, 5 μg per dose, tumor of 4 cc before treatment
  tumor volume: 2 cc
[1]; third animal, 2.5 μg per dose, first tumor of 0.5 cc before treatment
  tumor volume: 0.2 cc
[1]; third animal, 2.5 μg per dose, second tumor of 0.5 cc before treatment
  tumor volume: > 0.0 cc
[1]; third animal, 2.5 μg per dose, tumor of 1.5 cc before treatment
  tumor volume: 0.5 cc
[1]; third animal, 2.5 μg per dose, tumor of 3.5 cc before treatment
  tumor volume: 3.0 cc
[1]; third animal, 2.5 μg per dose, tumor of 6.5 cc before treatment
  tumor volume: 1.5 cc
[2]; counted from original treatment beginning, 54 days following the last treatment
  day until which the tumor remained dormant before significant growing resumed: 147 days
[2]; day 5 of treatment, 10 μg b.i.d. subcutaneous, diameter before treatment 3 cm
  tumor diameter: 2 cm
[2]; day 9 of treatment, 10 μg b.i.d. subcutaneous, diameter before treatment 3 cm
  tumor diameter: 0.5 cm
[2]; day 20 of treatment, 10 μg b.i.d. subcutaneous, diameter before treatment 3 cm
  tumor diameter: undetectable size
[2]; [3]
  tumor depth: 2 cm
  tumor diameter: 4 cm
[2]; day 93, second treatment started day 66 (depth then 2 cm), 10 μg b.i.d. subcutaneous
  tumor depth: 0.4 cm
[2]; day 93, second treatment started day 66 (diameter then 4 cm), 10 μg b.i.d. subcutaneous
  tumor diameter: 1.2 cm
